Data set [1] has as its target T1, κOR (Homo sapiens, UniProt P41145).
T1 construct: host or cells: CHO-K1
Nature of the data set: cell-based. The settings on record: for Emax: read-out: κOR cAMP inhibition Emax ± SEM (%). Format: cell-based.

Another data set addresses T2, μOR (Homo sapiens, UniProt P35372).
T2 construct: host or cells: CHO-K1
Nature of the data set: cell-based. Format: cell-based. As to conditions: for Emax: read-out: μOR cAMP inhibition Emax ± SEM (%).

For data set [2], the target named is T1, κOR. Nature of the data set: PathHunter β-arrestin-2 recruitment assay at the κOR. Format: cell-based. The settings on record: FIG. 6. The source says: Cell Lines and Cell Culture. To perform the HitHunter cAMP accumulation assay, Chinese hamster ovary cells (CHO-K1) stably expressing human μ-opioid receptor (OPRM1, catalog no. 95-0107C2, DiscoverX, Fremont, CA, USA), K-opioid receptor (OPRK1, catalog no. 95-0088C2, DiscoverX, Fremont, CA, USA), or 6-opioid receptor (OPRD1, catalog no. 95-0108C2, DiscoverX, Fremont, CA, USA) were maintained at 80% confluence in F-12 media supplemented with 10% fetal bovine serum, 1% penicillin/streptomycin/L-glutamine, and 800 μg/mL G418. To perform the PathHunter β-arrestin-2 recruitment assay, U2OS-human κ opioid receptor (κOR) cells stably expressing the κOR and β-arrestin-2 (RRID:CVCL_LA97, DiscoverX, Fremont, CA, USA) were maintained in McCoy's 5A media supplemented with 10% FBS and containing 500 μg/mL geneticin and 250 μg/mL hygromycin. All cells were grown 37° C. under 5% CO2 in a humidified incubator under sterile conditions in T75 flasks. During passaging, cells were dislodged from the flask following a 3-5 min incubation with 0.25% trypsin or non-enzymatic detachment reagent and subcultivated at ratios of 1:10 (CHO) and 3:10 (U2OS).
PathHunter β-arrestin-2 Recruitment Assay. The R-arrestin-2 recruitment assay was performed using U2OS-human (κOR) PathHunter R-arrestin-2 cells (DiscoverX) as previously described.^77

The subject of a further data set is 320 non-olfactory GPCRs. Nature of the data set: PRESTO-Tango GPCRome screen of βArr2 recruitment. Format: cell-based. The settings on record: 3 μM, FIG. 7.
The target in a further data set is HERG (Homo sapiens, UniProt Q12809). As to conditions: data from reference 40; cited from earlier work.
Chain of HERG (Q12809 whole entry): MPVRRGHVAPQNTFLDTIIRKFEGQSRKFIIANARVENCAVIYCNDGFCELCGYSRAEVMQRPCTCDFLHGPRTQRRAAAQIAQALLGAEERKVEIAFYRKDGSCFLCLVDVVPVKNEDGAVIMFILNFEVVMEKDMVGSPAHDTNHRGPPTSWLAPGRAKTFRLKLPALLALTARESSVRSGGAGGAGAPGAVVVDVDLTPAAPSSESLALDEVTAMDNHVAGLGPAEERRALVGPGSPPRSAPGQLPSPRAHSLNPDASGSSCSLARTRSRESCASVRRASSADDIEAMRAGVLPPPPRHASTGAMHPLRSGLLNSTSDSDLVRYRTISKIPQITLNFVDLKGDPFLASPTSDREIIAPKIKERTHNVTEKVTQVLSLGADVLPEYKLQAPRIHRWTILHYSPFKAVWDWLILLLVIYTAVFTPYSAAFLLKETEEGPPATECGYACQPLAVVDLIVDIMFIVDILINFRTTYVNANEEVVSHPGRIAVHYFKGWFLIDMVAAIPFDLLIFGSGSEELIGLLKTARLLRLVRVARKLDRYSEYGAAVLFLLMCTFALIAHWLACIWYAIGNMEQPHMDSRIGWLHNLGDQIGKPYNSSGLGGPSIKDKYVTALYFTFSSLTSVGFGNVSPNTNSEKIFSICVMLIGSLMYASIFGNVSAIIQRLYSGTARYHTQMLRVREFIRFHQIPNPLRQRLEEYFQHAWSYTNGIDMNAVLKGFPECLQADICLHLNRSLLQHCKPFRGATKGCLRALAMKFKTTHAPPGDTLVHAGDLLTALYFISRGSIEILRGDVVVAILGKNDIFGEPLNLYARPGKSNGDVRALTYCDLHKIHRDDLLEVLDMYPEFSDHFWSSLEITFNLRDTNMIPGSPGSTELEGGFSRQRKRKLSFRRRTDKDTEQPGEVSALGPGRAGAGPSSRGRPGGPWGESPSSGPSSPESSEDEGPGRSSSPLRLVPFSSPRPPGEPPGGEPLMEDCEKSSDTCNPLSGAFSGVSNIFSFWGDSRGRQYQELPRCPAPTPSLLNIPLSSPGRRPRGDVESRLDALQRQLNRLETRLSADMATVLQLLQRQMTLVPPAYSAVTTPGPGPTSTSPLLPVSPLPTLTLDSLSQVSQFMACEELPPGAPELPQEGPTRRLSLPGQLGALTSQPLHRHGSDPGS
Where [3] appears, read: read-out: κOR cAMP inhibition EC50.
The mark [4] stands for this setting: read-out: μOR cAMP inhibition EC50.

Like-named read-outs stand apart in the source and are kept apart here.

T2 sequence (P35372 whole entry): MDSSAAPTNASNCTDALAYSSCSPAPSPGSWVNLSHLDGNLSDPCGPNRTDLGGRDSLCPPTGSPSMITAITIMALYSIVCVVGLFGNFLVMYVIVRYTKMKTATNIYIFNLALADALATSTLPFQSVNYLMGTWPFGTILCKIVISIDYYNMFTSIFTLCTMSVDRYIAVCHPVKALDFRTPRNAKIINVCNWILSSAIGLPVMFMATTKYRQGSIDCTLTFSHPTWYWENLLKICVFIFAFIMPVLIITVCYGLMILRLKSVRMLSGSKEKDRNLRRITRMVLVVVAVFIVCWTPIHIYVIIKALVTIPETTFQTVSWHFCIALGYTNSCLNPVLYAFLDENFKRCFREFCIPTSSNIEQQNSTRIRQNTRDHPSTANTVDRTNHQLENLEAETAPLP
T1 sequence (P41145 whole entry): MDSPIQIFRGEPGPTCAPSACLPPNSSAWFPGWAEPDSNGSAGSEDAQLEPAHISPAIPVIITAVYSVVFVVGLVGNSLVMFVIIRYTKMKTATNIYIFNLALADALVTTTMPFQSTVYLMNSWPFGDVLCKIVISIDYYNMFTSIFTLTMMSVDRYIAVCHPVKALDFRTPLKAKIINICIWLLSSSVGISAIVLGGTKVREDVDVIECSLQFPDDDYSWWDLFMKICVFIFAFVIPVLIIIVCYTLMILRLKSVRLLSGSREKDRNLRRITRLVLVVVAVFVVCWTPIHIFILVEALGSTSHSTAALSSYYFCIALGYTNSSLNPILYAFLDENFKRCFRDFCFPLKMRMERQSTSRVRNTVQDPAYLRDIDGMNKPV

For `C=CC[N+]12CCC34C(=C(C(=O)OC)C(CC31)C(=CC)C2)Nc1ccccc14` (stereo not drawn) [Compound 17, N-4-Allylakuammicine], the EC50 at κOR [1] was above 10000 nM; on κOR [1] (setting [3]), above 10000 nM; on μOR, above 10 µM; on μOR (setting [4]) it was above 10 µM. Moreover, the Emax on κOR [1] and on μOR was below 10% throughout.

Turning to `C/C=C1/C[N+]2(CC3CC3)CC[C@]34C(=C(C(=O)OC)[C@H]1C[C@@H]32)Nc1ccc(Br)cc14` (stereo partly drawn) [Compound 25, 10-Bromo-N-4-cyclopropylmethylakuammicine], at κOR [1], the “κOR cAMP inhibition pEC50 ± SEM” value is 6.7 ± 0.1 and the Emax worked out at 94 ± 5%. Moreover, at κOR [1] (setting [3]), the EC50 turned out to be 210 nM. For the same compound, at μOR, the Emax was below 10%.

Take `C/C=C1/C[N+]2(CCC)CC[C@]34C(=C(C(=O)OC)[C@H]1C[C@@H]32)Nc1ccccc14` (stereo partly drawn) [Compound 18, N-4-Propylakuammicine]: the maximal response (Emax) at κOR [1] and on μOR was below 10% each time.

With `C/C=C1/CN2CC[C@]34C(=C(C(=O)OC)[C@H]1C[C@H]23)Nc1ccc(-c2ccoc2)cc14` [Compound 5, 10-(3-Furanyl)akuammicine], at κOR [1], the “fold increase in κOR potency relative to 1” value is given as > 1,300, the “κOR cAMP inhibition pEC50 ± SEM” value came to 9.1 ± 0.1 and the Emax is 102 ± 2%. At κOR [1] (setting [3]), the EC50 is 0.88 nM. At μOR, the concentration for a half-maximal effect (EC50) was 0.72 to 0.84 µM, the “μOR cAMP inhibition pEC50 ± SEM” value came out at 6.1 ± 0.2 and the Emax was determined as 99 ± 12%. On μOR (setting [4]), the EC50 turned out to be 0.72 µM. Also, the “βArr2 recruitment compared with U50,488” value at κOR [2] is “significantly less recruitment of βArr2 than U50488 at concentrations <10 μM”.

For `CC=C1CN2CCC34c5cc(I)ccc5NC3C(C(=O)OC)C1CC24` (stereo not drawn) [Compound 22, 10-Iodo-2,16-dihydroakuammicine], the EC50 on κOR [1] was 24 nM; on μOR, above 10 µM; at μOR (setting [4]), above 10 µM.

For the compound `CCC1CN2CCC34C(=C(C(=O)OC)C1CC23)Nc1ccc(Br)cc14` (stereo not drawn) [Compound 27, 10-Bromo-19,20-dihydroakuammicine], on κOR [1], the “Selectivity index = μOR EC50/κOR EC50” value was determined as 35, the “κOR cAMP inhibition pEC50 ± SEM” value stood at 7.5 ± 0.1 and the maximum response (Emax) was found to be 100 ± 5%. Also, on κOR [1] (setting [3]), the 50% effective concentration (EC50) is 31 nM. Besides, on μOR, the “μOR cAMP inhibition pEC50 ± SEM” value came to 6.0 ± 0.1 and the maximum response (Emax) was 107 ± 5%. For the same compound, the EC50 at μOR (setting [4]) amounted to 1.1 µM.

Take `C/C=C1/C[N+]2(Cc3ccccc3)CC[C@]34C(=C(C(=O)OC)[C@H]1C[C@@H]32)Nc1ccccc14` (stereo partly drawn) [Compound 20, N-4-Benzylakuammicine]: the maximal effect (Emax) on κOR [1] was below 10%. In addition, at μOR, the “μOR cAMP inhibition pEC50 ± SEM” value turned out to be 5.6 ± 0.1 and the maximal response (Emax) came out at 112 ± 6%. On μOR (setting [4]), the half-maximal effective concentration (EC50) is 2.3 µM.

As for `CC=C1CN2CCC34C(=C(C(=O)OC)C1CC23)Nc1ccc([N+](=O)[O-])cc14` (stereo not drawn) [Compound 8, 10-Nitroakuammicine], at κOR [1], the EC50 turned out to be 160 nM, the “Selectivity index = μOR EC50/κOR EC50” value came out at 25 and the maximum response (Emax) amounted to 96 ± 5%. Further, at μOR, the EC50 is 4 µM and the maximal effect (Emax) is below 10%. Moreover, in the data set on 320 non-olfactory GPCRs, the “βArr recruitment against GPCRome” value is on record as “induced recruitment of a number of non-opioid targets”.

On to `C/C=C1/C[N+]2(C)CC[C@]34C(=C(C(=O)OC)[C@H]1C[C@@H]32)Nc1ccccc14` (stereo partly drawn) [Compound 16, N-4-Methylakuammicine], for which the maximal effect (Emax) at κOR [1] and on μOR was below 10% each time.

Turning to `C/C=C1/CN2CC[C@]34c5ccccc5NC3C(C(=O)OC)[C@H]1C[C@H]24` (stereo partly drawn) [Compound 14, 2,16-dihydroakuammicine], the concentration giving a half-maximal response (EC50) was above 10000 nM at κOR [1], above 10000 nM on κOR [1] (setting [3]), above 10 µM on μOR and above 10 µM at μOR (setting [4]). Besides, the “agonist activity at the κOR” value on κOR [1] is recorded as “all κOR agonist activity is abolished or significantly diminished”. Moreover, the Emax on κOR [1] and on μOR was below 10% throughout.

Regarding `C/C=C1/CN2CC[C@]34c5cc(Br)ccc5NC3C(C(=O)OC)[C@H]1C[C@H]24` (stereo partly drawn) [Compound 21, 10-Bromo-2,16-dihydroakuammicine], on κOR [1], the “κOR cAMP inhibition pEC50 ± SEM” value was determined as 7.3 ± 0.1 and the Emax was found to be 100 ± 4%. Besides, the 50% effective concentration (EC50) on κOR [1] (setting [3]) was determined as 47 nM.

Take `CCC1CN2CCC34c5ccccc5NC3C(C(=O)OC)C1CC24` (stereo not drawn) [Compound 15, 2,16,19,20-tetrahydroakuammicine]: the half-maximal effective concentration (EC50) on κOR [1] is above 10000 nM; at κOR [1] (setting [3]), above 10000 nM; at μOR it was above 10 µM; at μOR (setting [4]), above 10 µM. Besides, on κOR [1], the “agonist activity at the κOR” value is reported as “all κOR agonist activity is abolished or significantly diminished”. Besides, the Emax at κOR [1] and on μOR was below 10% each time.

Consider `CC=C1CN2CCC34C(=C(C(=O)OC)C1CC23)Nc1ccc(C#N)cc14` (stereo not drawn) [Compound 7, 10-Cyanoakuammicine], for which, at κOR [1], the concentration for a half-maximal effect (EC50) amounted to 81 nM and the Emax turned out to be 102 ± 6%. On μOR, the EC50 was above 10 µM, the “agonist activity at the μOR” value was “without activating the μOR” and the Emax was below 10%. Besides, on μOR (setting [4]), the EC50 was above 10 µM.

On to `C/C=C1/CN2CC[C@]34C(=C(C(=O)OC)[C@H]1C[C@H]23)Nc1ccc(-c2ccccc2)cc14` [Compound 4, 10-Phenylakuammicine], for which, at κOR [1], the “κOR cAMP inhibition pEC50 ± SEM” value was 7.8 ± 0.1 and the Emax turned out to be 101 ± 2%. Also, at κOR [1] (setting [3]), the EC50 turned out to be 15 nM. In addition, at μOR, the concentration giving a half-maximal response (EC50) lay within 0.72 to 0.84 µM, the “μOR cAMP inhibition pEC50 ± SEM” value is reported as 6.1 ± 0.1 and the maximum response (Emax) turned out to be 106 ± 6%. Moreover, on μOR (setting [4]), the EC50 was 0.78 µM.

In the case of `CC=C1C[N+]2(CC3CC3)CCC34C(=C(C(=O)OC)C1CC32)Nc1ccccc14` (stereo not drawn) [Compound 19, N-4-Cyclopropylmethylakuammicine], at κOR [1], the 50% effective concentration (EC50) was determined as 4700 nM, the “fold reduced κOR potency compared to 1” value is “about 4 fold” and the Emax was determined as 113 ± 24%. In addition, at μOR, the concentration for a half-maximal effect (EC50) was above 10 µM and the Emax was below 10%. Moreover, the concentration giving a half-maximal response (EC50) on μOR (setting [4]) is above 10 µM.

For the compound `COC(=O)C1=C2Nc3ccccc3[C@@]23CCN2C[C@@](O)([C@@H](C)O)[C@@H]1C[C@H]23` [Compound 10, 19R,20R-Dihydroxyakuammicine], the “agonist activity at the κOR” value at κOR [1] was “no agonist activity”. The “agonist activity at the μOR” value at μOR is “no agonist activity”.

For the compound `C/C=C1/CN2CC[C@]34C(=C(C(=O)OC)[C@H]1C[C@H]23)Nc1ccc(-c2ccsc2)cc14` [Compound 6, 10-(3-Thienyl)akuammicine], on κOR [1], the “κOR cAMP inhibition pEC50 ± SEM” value is reported as 8.1 ± 0.1 and the Emax was 104 ± 3%. Also, the EC50 on κOR [1] (setting [3]) came to 7.7 nM. Moreover, on μOR, the 50% effective concentration (EC50) is 0.72 to 0.84 µM, the “μOR cAMP inhibition pEC50 ± SEM” value was 6.1 ± 0.1 and the maximal response (Emax) worked out at 107 ± 3%. In addition, the EC50 at μOR (setting [4]) is 0.84 µM.

In the case of `CC[C@@H]1CN2CC[C@]34C(=C(C(=O)OC)[C@H]1C[C@H]23)Nc1ccccc14` [Compound 13, 19,20-dihydroakuammicine], on κOR [1], the “κOR cAMP inhibition Emax ± SEM (%)” value came out at 99 ± 9% and the “κOR cAMP inhibition pEC50 ± SEM” value is 5.8 ± 0.1. The 50% effective concentration (EC50) on κOR [1] (setting [3]) amounted to 1600 nM. In addition, at μOR, the “μOR cAMP inhibition Emax ± SEM (%)” value is on record as below 10% and the “μOR cAMP inhibition pEC50 ± SEM” value is listed as “— (key: — = no activity observed at 10 μM.)”. Also, the concentration for a half-maximal effect (EC50) at μOR (setting [4]) was above 10 µM.

In the case of `C/C=C1/CN2CC[C@]34C(=C(C(=O)OC)[C@H]1C[C@H]23)Nc1ccccc14` [Compound 1, Akuammicine, reference compound], the “Ki (nM) at HERG” value at HERG is reported as “— (“—” indicates compound produced less than 50% displacement of radioligand in primary binding screen at 10 μM.)”. Besides, the maximum response (Emax) at κOR [1] stood at 91 ± 7%.

Take `C=CC[N+]12CCC34C(=C(C(=O)OC)C(CC31)C(=CC)C2)Nc1ccc(Br)cc14` (stereo not drawn) [Compound 24, 10-Bromo-N-4-allylakuammicine]: the figures for the EC50 on κOR [1], at μOR and on μOR (setting [4]) were 650 nM, above 10 µM and above 10 µM, respectively. Also, the figures for the Emax on κOR [1] and at μOR were 100 ± 7% and below 10%, respectively.

With 19-Hydroxyalstolucine [Compound 12], at κOR [1], the “agonist activity at the κOR” value is “no agonist activity”, the “κOR cAMP inhibition Emax ± SEM (%)” value is below 10% and the “κOR cAMP inhibition pEC50 ± SEM” value is given as “— (key: — = no activity observed at 10 μM.)”. The EC50 on κOR [1] (setting [3]) was above 10000 nM. Further, at μOR, the “agonist activity at the μOR” value was “no agonist activity”, the “μOR cAMP inhibition Emax ± SEM (%)” value is given as below 10% and the “μOR cAMP inhibition pEC50 ± SEM” value is listed as “— (key: — = no activity observed at 10 μM.)”. Besides, the EC50 on μOR (setting [4]) was above 10 µM.

For `CC=C1C[N+]2(C)CCC34C(=C(C(=O)OC)C1CC32)Nc1ccc(Br)cc14` (stereo not drawn) [Compound 23, 10-Bromo-N-4-methylakuammicine], the EC50 on κOR [1] is 940 nM; on μOR it was above 10 µM; on μOR (setting [4]), above 10 µM. Besides, the values for the Emax on κOR [1] and at μOR were 102 ± 7% and below 10%, respectively.

The record behind these values is patent US20250051332A1 (priority 2022, published 2025).
